Values of other authors, collected in patent US20100196363A1, “CANCER TREATMENT COMBINATION THERAPY COMPRISING VINFLUNINE AND TRASTUZUMAB” (Pierre Fabre Medicament, priority 2007, published 2010).

System: breast cancer
Conditions: vinflunine alone, same dosage, regimen and period; breast cancer patients

CC[C@]12C=CCN3CC[C@@]4(c5cc([C@@]6(C(=O)OC)C[C@@H]7C[C@@H](C(C)(F)F)CN(Cc8c6[nH]c6ccccc86)C7)c(OC)cc5N(C)[C@H]4[C@@](O)(C(=O)OC)[C@@H]1OC(C)=O)[C@@H]32 [Vinflunine, 20′,20′difluoro-3′,4′-dihydrovinorelbine]
Overall Response (RECIST): about 30%
